# Assay results from patent US20250189514A1 (priority 2022, published 2025).
# Read-outs that look alike come from different tables or passages of the source. Where no end group is shown, it is not given here.
# Assays:
# α6/3β2β3 nAChR [1] = system: α6/3β2β3 nAChR
# Method: In one embodiment, FLIPR assay is used to identify agonists of 6β2β3 nAChR (including chimeric α6/3β2β3 nAChR as described above) mediated calcium flux. In this assay, the recombinant cells are incubated with a calcium sensitive dye (such as Ca5), exposed to a test compound, and calcium flux is imaged by FLIPR^TETRA.
# • Spin down cells at 300×G for 5 min, aspirate supernatant, and resuspend in 10 ml plating medium. • Seed 25,000 cells/well in 50 μL (5×10^5cells/mL). • Incubate plates for 24 hours at 30° C. with 5% CO2 in a humidified atmosphere. Day 4 FLPR Assay • Wash plate with plate washer (4 washes x 100 μL/wash) using compound dilution buffer, leaving 25 μl in each well. • Add 25 μl of 2× Ca5 dye to each well. • Incubate at room temperature for 1 hr. • Wash plate with plate washer (4 washes x 100 μL/wash) using compound dilution buffer, leaving 25 μL in each well.
# • Transfer plates to FLIPR for compound addition. Single addition plate of 2× agonist (25 μL). Control wells for agonists will be in column 23 and 24. […] Negative control wells received buffer+vehicle (25 μL). Functional Expression of α6β2β3 nAChR
# α6/3β2β3 nAChR [2] = assay type: cell-based, human
compound,measurement,setting,value
CN1CCCC1c1cccnc1 (stereo not shown) [nicotine],nicotine EC80,α6/3β2β3 nAChR [1]; 2nd addition in concentration response curve experiment,236 nm
same,EC80 nicotine,α6/3β2β3 nAChR [1]; concentration used as agonist challenge in antagonist protocol,236 nM
CNC1(C)C2CCC(C2)C1(C)C (stereo not shown) [mecamylamine],effect on nicotine-evoked calcium flux (FLIPR signal),"α6/3β2β3 nAChR [2]; transfected HEK293T cells incubated at 30° C. for 24-48 hour, antagonist at various concentration 3 min, then nicotine EC80 3.5 min, FIGS. 2A-2D",decreases the nicotine-evoked calcium flux in a dose-dependent manner
CCN1C[C@]2(COC(=O)c3ccccc3N3C(=O)C[C@H](C)C3=O)CC[C@H](OC)[C@@]34[C@@H]5C[C@H]6[C@H](OC)[C@@H]5[C@](O)(C[C@@H]6OC)[C@](O)([C@@H](OC)[C@H]23)[C@@H]14 [MLA],effect on nicotine-evoked calcium flux (FLIPR signal),α6/3β2β3 nAChR [2],decreases the nicotine-evoked calcium flux in a dose-dependent manner
"α-conotoxin MII (GCCSNPVCHLEHSNLC; ends and bridges not checked; cysteine pairing not given here; UniProt P56636 49-64, looked up)",effect on nicotine-evoked calcium flux (FLIPR signal),α6/3β2β3 nAChR [2],decreases the nicotine-evoked calcium flux in a dose-dependent manner
CO[C@H]1CC=C2CCN3CCC4=C(CC(=O)OC4)[C@]23C1 [DHbE],IC100 DHBe,α6/3β2β3 nAChR [2],10 µM
same,effect on nicotine-evoked calcium flux (FLIPR signal),α6/3β2β3 nAChR [2],decreases the nicotine-evoked calcium flux in a dose-dependent manner
